From paper PMC2760454 (Biochemistry, 2008)
Read-outs that look alike come from different tables or passages of the source. Each block holds one compound with its values, some of them ahead of it.

Legend:
[1] = molecular target: T1, homoisocitrate dehydrogenase (HIcDH) (Saccharomyces cerevisiae, UniProt P40495); test: Product and dead-end inhibition studies of HIcDH in the absence of K+; format: biochemical; details: NAD fixed at its Km
[2] = molecular target: T1, homoisocitrate dehydrogenase (HIcDH); test: HIcDH initial velocity studies; format: biochemical; details: for Kact (activation constant): varied salt, MgHIc 4.2 µM, NAD 0.5 mM, fit to eq. 1
[3] = molecular target: T1, homoisocitrate dehydrogenase (HIcDH); test: pH dependence of HIcDH kinetic parameters and of the activation constant of K+; format: biochemical
[4] = molecular target: T1, homoisocitrate dehydrogenase (HIcDH); details: in the presence of K+; cited from earlier work

T1 sequence (P40495 23-371): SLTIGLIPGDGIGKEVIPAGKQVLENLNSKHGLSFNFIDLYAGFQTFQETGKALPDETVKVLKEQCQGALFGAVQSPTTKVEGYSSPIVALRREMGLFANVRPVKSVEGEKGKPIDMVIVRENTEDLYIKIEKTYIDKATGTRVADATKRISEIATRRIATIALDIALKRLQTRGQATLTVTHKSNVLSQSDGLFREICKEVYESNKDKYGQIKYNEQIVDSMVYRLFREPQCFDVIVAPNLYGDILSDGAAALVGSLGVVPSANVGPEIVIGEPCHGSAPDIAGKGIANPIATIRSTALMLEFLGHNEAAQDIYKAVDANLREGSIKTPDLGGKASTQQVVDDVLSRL

SMILES: O=C(O)CCC=C(C(=O)O)C(O)C(=O)O (stereo not drawn) [CPM, 3-Carboxypropylidenemalate]
inhibition constant, competitive versus MgHIc [1]: 65 ± 7 ∝M

SMILES: [Cl-].[K+] [KCl]
fold increase in initial rate ([2]; 200 mM KCl versus absence, reactants fixed at their Km values): 13 fold
Kact (activation constant) [2]: 55 ± 20 mM

SMILES: NC(=O)c1ccc[n+]([C@@H]2O[C@H](COP(=O)([O-])OP(=O)(O)OC[C@H]3O[C@@H](n4cnc5c(N)ncnc54)[C@H](O)[C@@H]3O)[C@@H](O)[C@H]2O)c1 [NAD, nicotinamide adenine dinucleotide]
Kd [2]: 77 ± 57 mM
KNAD ([2]; KCl 0 mM): 9 ± 3 mM
KNAD ([2]; KCl 5 mM): 1.6 ± 0.2 mM
KNAD ([2]; KCl 15 mM): 1.3 ± 0.1 mM
KNAD ([2]; KCl 150 mM): 0.8 ± 0.1 mM
KNAD ([2]; KCl 350 mM): 0.9 ± 0.2 mM
KNAD ([2]; Minus KOAc, pH 8.0, 25°C): 9 ± 3 mM
V1/KNADEt ([2]; Minus KOAc, pH 8.0, 25°C): (5 ± 1) × 10^2 M^−1·s^−1
KNAD ([2]; NAD varied at fixed KOAc, MgHIc saturating (10Km), fit to eq. 5): 0.3 ± 0.1 mM
KNAD ([2]; Plus KOAc, pH 8.0, 25°C): 0.3 ± 0.1 mM
V1/KNADEt ([2]; Plus KOAc, pH 8.0, 25°C): (4 ± 1) × 10^4 M^−1·s^−1
V/KNADEt, constant value at high pH ([3]; absence of K+, pH 8.5 to 9.7): about 123 ± 3 M^−1s^−1

SMILES: NC(=O)C1=CN([C@@H]2O[C@H](COP(=O)(O)OP(=O)(O)OC[C@H]3O[C@@H](n4cnc5c(N)ncnc54)[C@H](O)[C@@H]3O)[C@@H](O)[C@H]2O)C=CC1 [NADH, reduced nicotinamide adenine dinucleotide]
Ki [4]: 0.3 mM

SMILES: C[N+](C)(C)C.[Cl-] [tetramethylammonium chloride, reference compound]
initial rate as % of that without KCl ([2]; 200 mM, fixed concentrations of MgHIc and NAD): about 36%

Continued, values first:

Ki fold higher than with KCl ([2]; KOAc versus KCl): 5 fold
Kact (activation constant) [2]: 26 ± 4 mM
SMILES: CC(=O)[O-].[K+] [KOAc, Potassium acetate]

Kd ([2]; read-out: KiK, NAD varied at fixed KOAc, MgHIc saturating (10Km), fit to eq. 5): 43 ± 19 mM
appKact, pH independent value ([3]; KOAc varied, NAD 0.4 mM, MgHIc 10Km, average of data above pH 7): about 13 mM
SMILES: [K+] [K^+, Potassium]
